# In PubChem BioAssay AID330 (DTP/NCI, 2004):
# Several values for one entry are separate records, joined by “and”; a condition that tells them apart may be missing. Equal entries are not always repeated. Toxic doses and inconclusive results are not listed.
# Test system: P388 leukemia ip, CD2F1 mice, survival T/C
# Experiment: NCI In Vivo Anticancer Drug Screen. Data for tumor model P388 Leukemia (intraperitoneal) in CD2F1 (CDF1) mice
# Settings: endpoint: median survival time, higher = longer survival
# Method in brief: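 Mice carrying the transplanted tumor received test compound or vehicle. Survival was recorded in each group, and the value is the treated-group measurement divided by that of the vehicle-treated control group.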
# [1] = dose: 50.0 mg/kg/injection, schedule: Q01DX005 (ip), vehicle: saline with Tween-80
# [2] = dose: 50.0 mg/kg/injection, schedule: Q01DX009 (ip), vehicle: saline with Tween-80
# [3] = dose: 50.0 mg/kg/injection, schedule: Q01DX005 (ip), vehicle: Klucel (hydroxypropylcellulose) (HPC)
# [4] = dose: 100.0 mg/kg/injection, schedule: Q01DX005 (ip), vehicle: Klucel (hydroxypropylcellulose) (HPC)
# [5] = dose: 200.0 mg/kg/injection, schedule: Q01DX005 (ip), vehicle: Klucel (hydroxypropylcellulose) (HPC)
# [6] = dose: 60.0 mg/kg/injection, schedule: Q01DX005 (ip), vehicle: saline with Tween-80
# [7] = dose: 120.0 mg/kg/injection, schedule: Q01DX005 (ip), vehicle: saline with Tween-80
# [8] = dose: 240.0 mg/kg/injection, schedule: Q01DX005 (ip), vehicle: saline with Tween-80
# [9] = dose: 25.0 mg/kg/injection, schedule: Q01DX009 (ip), vehicle: saline
# [10] = dose: 50.0 mg/kg/injection, schedule: Q01DX009 (ip), vehicle: saline
# [11] = dose: 100.0 mg/kg/injection, schedule: Q01DX009 (ip), vehicle: saline
structure (smiles),measurement,setting,value
Cc1cc(=O)[nH]c(N/N=C/c2ccc(O)cc2)n1,T/C,"dose: 18.75 mg/kg/injection, schedule: Q04DX003 (ip), vehicle: saline sonified",90 % of control
same,T/C,"dose: 37.5 mg/kg/injection, schedule: Q04DX003 (ip), vehicle: saline sonified",86 % of control
same,T/C,"dose: 75.0 mg/kg/injection, schedule: Q04DX003 (ip), vehicle: saline sonified",104 % of control
C=CC/C(=N\OS(=O)(=O)O)SC1OC(CO)C(O)C(O)C1O (stereo not given),T/C,"dose: 25.0 mg/kg/injection, schedule: Q01DX005 (ip), vehicle: saline",92 % of control and 98 % of control
same,T/C,"dose: 50.0 mg/kg/injection, schedule: Q01DX005 (ip), vehicle: saline",102 % of control [middle of 4 runs]
same,T/C,"dose: 100.0 mg/kg/injection, schedule: Q01DX005 (ip), vehicle: saline",101 % of control and 102 % of control and 104 % of control
same,T/C,"dose: 200.0 mg/kg/injection, schedule: Q01DX005 (ip), vehicle: saline",100 % of control and 101 % of control and 98 % of control
O=C1Nc2c(Cl)cc(Cl)cc2/C1=N/N=C/c1ccccc1O,T/C,[1],91 % of control
O=[N+]([O-])c1ccc2c(Cl)c3ccccc3nc2c1,T/C,[2],95 % of control
same,T/C,"dose: 100.0 mg/kg/injection, schedule: Q01DX009 (ip), vehicle: saline with Tween-80",103 % of control
same,T/C,"dose: 200.0 mg/kg/injection, schedule: Q01DX009 (ip), vehicle: saline with Tween-80",94 % of control
Cc1ccc2[nH]cc(C3CCCN4CCCCC34)c2c1 (stereo not given),T/C,"dose: 12.5 mg/kg/injection, schedule: Q01DX001 (ip), vehicle: saline with Tween-80",99 % of control
same,T/C,"dose: 25.0 mg/kg/injection, schedule: Q01DX001 (ip), vehicle: saline with Tween-80",100 % of control
same,T/C,"dose: 50.0 mg/kg/injection, schedule: Q01DX001 (ip), vehicle: saline with Tween-80",98 % of control
same,T/C,"dose: 90.0 mg/kg/injection, schedule: Q01DX001 (ip), vehicle: saline with Tween-80",92 % of control
CC(=O)N(CC1OC2OC(C)(C)OC2C2OC(C)(C)OC12)N=Nc1ccc([N+](=O)[O-])cc1 (stereo not given),T/C,[3],100 % of control
same,T/C,[4],89 % of control
same,T/C,[5],91 % of control
COc1ccc(/C=C2/C/C(=C/c3ccc(OC)cc3)C2=O)cc1,T/C,"dose: 100.0 mg/kg/injection, schedule: Q04DX003 (ip), vehicle: Klucel (hydroxypropylcellulose) (HPC)",95 % of control
same,T/C,"dose: 200.0 mg/kg/injection, schedule: Q04DX003 (ip), vehicle: Klucel (hydroxypropylcellulose) (HPC)",103 % of control
same,T/C,"dose: 400.0 mg/kg/injection, schedule: Q04DX003 (ip), vehicle: Klucel (hydroxypropylcellulose) (HPC)",97 % of control
O=C1C(=O)c2ccccc2-c2ccccc21,T/C,"dose: 6.25 mg/kg/injection, schedule: Q01DX009 (ip), vehicle: saline with Tween-80",104 % of control
same,T/C,"dose: 12.5 mg/kg/injection, schedule: Q01DX009 (ip), vehicle: saline with Tween-80",104 % of control
same,T/C,"dose: 25.0 mg/kg/injection, schedule: Q01DX009 (ip), vehicle: saline with Tween-80",108 % of control
same,T/C,[2],100 % of control
Cc1ccc(S(=O)(=O)N/N=C2/C(=O)NC(=O)C(=O)C2c2nc3ccccc3s2)cc1 (stereo not given),T/C,[6],98 % of control
same,T/C,[7],92 % of control
same,T/C,[8],100 % of control
C=C(Br)COc1ccc2c(C)cc(=O)oc2c1,T/C,[6],115 % of control
same,T/C,[7],100 % of control
same,T/C,[8],96 % of control
CN1CCCSC1=S,T/C,"dose: 6.25 mg/kg/injection, schedule: Q01DX009 (ip), vehicle: Klucel (hydroxypropylcellulose) (HPC)",111 % of control
same,T/C,"dose: 12.5 mg/kg/injection, schedule: Q01DX009 (ip), vehicle: Klucel (hydroxypropylcellulose) (HPC)",97 % of control
same,T/C,"dose: 25.0 mg/kg/injection, schedule: Q01DX009 (ip), vehicle: Klucel (hydroxypropylcellulose) (HPC)",106 % of control
O=C(O)C(CSC(c1ccccc1)(c1ccccc1)c1ccccc1)N=Cc1ccccc1O (stereo not given),T/C,"dose: 100.0 mg/kg/injection, schedule: Q04DX003 (ip), vehicle: saline with Tween-80",168 % of control
same,T/C,"dose: 150.0 mg/kg/injection, schedule: Q04DX003 (ip), vehicle: saline with Tween-80",190 % of control
same,T/C,"dose: 200.0 mg/kg/injection, schedule: Q04DX003 (ip), vehicle: saline with Tween-80",122 % of control
NC(=S)c1cccc(/C=N/Nc2ccccn2)c1,T/C,"dose: 100.0 mg/kg/injection, schedule: Q01DX001 (ip), vehicle: saline",96 % of control
same,T/C,"dose: 200.0 mg/kg/injection, schedule: Q01DX001 (ip), vehicle: saline",94 % of control
same,T/C,"dose: 400.0 mg/kg/injection, schedule: Q01DX001 (ip), vehicle: saline",96 % of control
Nc1cccc2c1C(=O)c1nc3ccccc3nc1C2=O,T/C,"dose: 100.0 mg/kg/injection, schedule: Q01DX001 (ip), vehicle: Klucel + Tween-80",98 % of control
same,T/C,"dose: 200.0 mg/kg/injection, schedule: Q01DX001 (ip), vehicle: Klucel + Tween-80",94 % of control
same,T/C,"dose: 400.0 mg/kg/injection, schedule: Q01DX001 (ip), vehicle: Klucel + Tween-80",94 % of control
CC(C)C1OC(=O)/C=C/C=C/C=C/C=C/C=C/CC(O)C(C)C(O)CC(O)CC(O)CC(O)CC(O)CC(O)CC(O)/C=C/C1C (stereo not given),T/C,"dose: 1.56 mg/kg/injection, schedule: Q01DX009 (ip), vehicle: saline",100 % of control
same,T/C,"dose: 3.12 mg/kg/injection, schedule: Q01DX009 (ip), vehicle: saline",96 % of control
same,T/C,"dose: 6.25 mg/kg/injection, schedule: Q01DX009 (ip), vehicle: saline",102 % of control and 92 % of control
CN1CC[C@]23c4c5ccc(O)c4O[C@H]2C(=O)CC[C@H]3[C@H]1C5,T/C,"dose: 12.5 mg/kg/injection, schedule: Q01DX005 (iv), vehicle: saline",99 % of control and 102 % of control
same,T/C,"dose: 12.5 mg/kg/injection, schedule: Q01DX009 (ip), vehicle: saline",108 % of control
same,T/C,"dose: 25.0 mg/kg/injection, schedule: Q01DX005 (iv), vehicle: saline",102 % of control and 106 % of control
same,T/C,[9],111 % of control
same,T/C,"dose: 50.0 mg/kg/injection, schedule: Q01DX005 (iv), vehicle: saline",99 % of control and 102 % of control
same,T/C,[10],103 % of control and 97 % of control
same,T/C,"dose: 100.0 mg/kg/injection, schedule: Q01DX005 (iv), vehicle: saline",101 % of control
same,T/C,"dose: 200.0 mg/kg/injection, schedule: Q01DX005 (iv), vehicle: saline",102 % of control
Cn1c(-c2ccc(Br)cc2)cc2[nH]c(=S)nc(N)c2c1=O,T/C,"dose: 25.0 mg/kg/injection, schedule: Q01DX005 (ip), vehicle: saline with Tween-80",105 % of control
same,T/C,[1],100 % of control
same,T/C,"dose: 100.0 mg/kg/injection, schedule: Q01DX005 (ip), vehicle: saline with Tween-80",102 % of control
same,T/C,"dose: 200.0 mg/kg/injection, schedule: Q01DX005 (ip), vehicle: saline with Tween-80",96 % of control
OCCOc1ccc(OCCO)c2ccccc12,T/C,[3],103 % of control
same,T/C,[4],104 % of control
same,T/C,[5],100 % of control
CC(=O)OCN(C)C=O,T/C,"dose: 125.0 mg/kg/injection, schedule: Q01DX005 (ip), vehicle: water",96 % of control
same,T/C,"dose: 250.0 mg/kg/injection, schedule: Q01DX005 (ip), vehicle: water",91 % of control
same,T/C,"dose: 500.0 mg/kg/injection, schedule: Q01DX005 (ip), vehicle: water",98 % of control
O=S(=O)(c1ccccc1)C1CC=C(c2ccccc2)CNC1 (stereo not given),T/C,"dose: 50.0 mg/kg/injection, schedule: Q01DX001 (ip), vehicle: Klucel (hydroxypropylcellulose) (HPC)",99 % of control
same,T/C,"dose: 100.0 mg/kg/injection, schedule: Q01DX001 (ip), vehicle: Klucel (hydroxypropylcellulose) (HPC)",98 % of control
same,T/C,"dose: 200.0 mg/kg/injection, schedule: Q01DX001 (ip), vehicle: Klucel (hydroxypropylcellulose) (HPC)",98 % of control
same,T/C,"dose: 400.0 mg/kg/injection, schedule: Q01DX001 (ip), vehicle: Klucel (hydroxypropylcellulose) (HPC)",100 % of control
CC(C)(N)CNc1ccccc1,T/C,[9],111 % of control
same,T/C,[10],117 % of control
same,T/C,[11],120 % of control
CCOC(=O)CC(C(=O)OCC)C(=O)OCC,T/C,[9],97 % of control
same,T/C,[10],100 % of control
same,T/C,[11],103 % of control
same,T/C,"dose: 200.0 mg/kg/injection, schedule: Q01DX009 (ip), vehicle: saline",106 % of control
CCOC(=O)/C=C/c1nc(OCC)c(C)c(C(=O)OCC)n1,T/C,"dose: 12.5 mg/kg/injection, schedule: Q01DX009 (ip), vehicle: other",95 % of control
same,T/C,"dose: 25.0 mg/kg/injection, schedule: Q01DX009 (ip), vehicle: other",102 % of control
same,T/C,"dose: 50.0 mg/kg/injection, schedule: Q01DX009 (ip), vehicle: other",98 % of control
same,T/C,"dose: 100.0 mg/kg/injection, schedule: Q01DX009 (ip), vehicle: other",103 % of control
same,T/C,"dose: 200.0 mg/kg/injection, schedule: Q01DX009 (ip), vehicle: other",90 % of control
